The values below come from patent US20250339401A1, “METHODS AND MATERIALS FOR TREATMENT OF NEISSERIA GONORRHOEAE INFECTION” (Purdue Research Foundation, priority 2021, published 2025).

Values after ≈ are worked out from the molar mass of the structure shown.

Holding throughout (format): cell-based
Experiment [1] concerns Neisseria gonorrhoeae 170. As to the kind of experiment: MIC broth microdilution, N. gonorrhoeae 170. On the procedure:
(§1) The minimum inhibitory concentrations (MICs) of the tested compounds and control drugs; Azithromycin, Cefixime and Tetracycline (antibiotics) were determined using the broth microdilution method as described in previous reports with minor modifications against clinically-relevant Neisseria gonorrhea strains. Strains were grown on Brucella broth supplemented with yeast extract, neopeptone, hematin, pyridoxal and NAD at 37° C. for 24 hours in presence of 5% CO2. […] Compounds and control drugs were added in the first row of the 96-well plates and serially diluted with media containing bacteria. Plates were then, incubated aerobically at 37° C. in the presence of 5% CO2 for 24 hours.
(In general: In broth dilution the organism is exposed to a series of concentrations in liquid medium.)

Experiment [2] has as its system Neisseria gonorrhoeae 167. As to the kind of experiment: MIC broth microdilution, N. gonorrhoeae 167. On the procedure:
as §1

Experiment [3] relates to Neisseria gonorrhoeae 165. Put plainly: MIC broth microdilution, N. gonorrhoeae 165. On the procedure:
as §1

For experiment [4], the system named is Neisseria gonorrhoeae 171. Put plainly: MIC broth microdilution, N. gonorrhoeae 171. On the procedure: as §1
Experiment [5] has as its system Neisseria gonorrhoeae 166. Put plainly: MIC broth microdilution, N. gonorrhoeae 166. On the procedure: as §1
For experiment [6], the system named is Neisseria gonorrhoeae 194. Put plainly: MIC broth microdilution, N. gonorrhoeae 194. On the procedure:
as §1

The test system of experiment [7] is Neisseria gonorrhoeae 178. As to the kind of experiment: MIC broth microdilution, N. gonorrhoeae 178. On the procedure: as §1
Experiment [8] has as its system Neisseria gonorrhoeae 188. Put plainly: MIC broth microdilution, N. gonorrhoeae 188. On the procedure:
as §1

The test system of experiment [9] is Neisseria gonorrhoeae 169. Put plainly: MIC broth microdilution, N. gonorrhoeae 169. On the procedure:
as §1

Experiment [10] deals with Neisseria gonorrhoeae 175. Put plainly: MIC broth microdilution, N. gonorrhoeae 175. On the procedure:
as §1

Experiment [11] concerns Neisseria gonorrhoeae isolate 191. Put plainly: MIC broth microdilution, initial screening against N. gonorrhoeae isolate 191. The conditions noted are these: 24 hours, 37° C., 5% CO2. On the procedure:
as §1

The subject of experiment [12] is Neisseria gonorrhoeae 214. Put plainly: MIC broth microdilution, N. gonorrhoeae 214. On the procedure:
as §1

In experiment [13] the test system is Neisseria gonorrhoeae 202. As to the kind of experiment: MIC broth microdilution, N. gonorrhoeae 202. On the procedure: as §1
The subject of experiment [14] is Neisseria gonorrhoeae 172. As to the kind of experiment: MIC broth microdilution, N. gonorrhoeae 172. On the procedure: as §1

As a reminder, the MIC is the smallest concentration in the dilution series that meets the test's criterion for growth inhibition. A higher MIC goes with a less susceptible organism. Consider `CC[C@H]1OC(=O)[C@H](C)[C@@H](O[C@H]2C[C@@](C)(OC)[C@@H](O)[C@H](C)O2)[C@H](C)[C@@H](O[C@@H]2O[C@H](C)C[C@H](N(C)C)[C@H]2O)[C@](C)(O)C[C@@H](C)CN(C)[C@H](C)[C@@H](O)[C@]1(C)O` [Azithromycin], for which the MIC turned out to be 1 µg/mL (≈ 1.34 µM) in experiment [1]; 16 µg/mL (≈ 21.4 µM) in experiment [2]; 1 µg/mL (≈ 1.34 µM) in experiment [3]; 0.25 µg/mL (≈ 0.334 µM) in experiment [4]; 2 µg/mL (≈ 2.67 µM) in experiment [5]; 1 µg/mL (≈ 1.34 µM) in experiment [6]. The MIC in experiment [7] was determined as 1 µg/mL (≈ 1.34 µM); in experiment [8], 2 µg/mL (≈ 2.67 µM); in [9], 1 µg/mL (≈ 1.34 µM); in experiment [10], 16 µg/mL (≈ 21.4 µM); in [12], 0.5 µg/mL (≈ 0.668 µM); in experiment [13], 32 µg/mL (≈ 42.7 µM). In [14], this compound had an MIC above 128 µg/mL. The “MIC (Minimum inhibitory concentration)” value in experiment [11] is above 128.

For `C=CC1=C(C(=O)O)N2C(=O)[C@@H](NC(=O)/C(=N\OCC(=O)O)c3csc(N)n3)[C@H]2SC1` [Cefixime], the minimum inhibitory concentration (MIC) in experiment [1] was 0.25 µg/mL (≈ 0.551 µM); in experiment [2], 0.06 µg/mL (≈ 0.132 µM); in experiment [3], 0.25 µg/mL (≈ 0.551 µM); in [4], 0.25 µg/mL (≈ 0.551 µM); in [5], 0.5 µg/mL (≈ 1.1 µM); in experiment [6] it was 1 µg/mL (≈ 2.21 µM). The minimum inhibitory concentration (MIC) in experiment [7] turned out to be 0.25 µg/mL (≈ 0.551 µM); in experiment [8] it was 0.25 µg/mL (≈ 0.551 µM); in experiment [9], 0.25 µg/mL (≈ 0.551 µM); in [10] it was 0.03 µg/mL (≈ 0.0662 µM); in experiment [12] it was 0.25 µg/mL (≈ 0.551 µM); in experiment [13], 0.03 µg/mL (≈ 0.0662 µM). In experiment [14], this compound displayed an MIC of 0.06 µg/mL (≈ 0.132 µM). Also, the “MIC (Minimum inhibitory concentration)” value in experiment [11] came to 0.06.

`CN(C)[C@@H]1C(O)=C(C(N)=O)C(=O)[C@@]2(O)C(O)=C3C(=O)c4c(O)cccc4[C@@](C)(O)[C@H]3C[C@@H]12` [Tetracycline]: the minimum inhibitory concentration (MIC) in [1] was found to be 4 µg/mL (≈ 9 µM); in experiment [2] it was 1 µg/mL (≈ 2.25 µM); in [3], 8 µg/mL (≈ 18 µM); in experiment [4] it was 2 µg/mL (≈ 4.5 µM); in experiment [5], 2 µg/mL (≈ 4.5 µM); in experiment [6], 1 µg/mL (≈ 2.25 µM). In addition, the MIC in [7] is 16 µg/mL (≈ 36 µM); in experiment [8], 2 µg/mL (≈ 4.5 µM); in experiment [9], 4 µg/mL (≈ 9 µM); in experiment [10] it was 1 µg/mL (≈ 2.25 µM); in experiment [12], 4 µg/mL (≈ 9 µM); in experiment [13] it was 1 µg/mL (≈ 2.25 µM). In [14], this compound returned an MIC of 1 µg/mL (≈ 2.25 µM). The “MIC (Minimum inhibitory concentration)” value in experiment [11] was 1.
